pIC50: −log10 of the molar value.

From patent US7879876B2, “Sulfonamide derivatives and use thereof for the modulation of metalloproteinases” (Merck Serono SA, priority 2005, dated 2011) come the findings set out here.

Common to all, as to type: biochemical
One experiment concerns the target T1, collagenase (MMP-1) (Homo sapiens, UniProt P03956).
T1 sequence (P03956 100-469): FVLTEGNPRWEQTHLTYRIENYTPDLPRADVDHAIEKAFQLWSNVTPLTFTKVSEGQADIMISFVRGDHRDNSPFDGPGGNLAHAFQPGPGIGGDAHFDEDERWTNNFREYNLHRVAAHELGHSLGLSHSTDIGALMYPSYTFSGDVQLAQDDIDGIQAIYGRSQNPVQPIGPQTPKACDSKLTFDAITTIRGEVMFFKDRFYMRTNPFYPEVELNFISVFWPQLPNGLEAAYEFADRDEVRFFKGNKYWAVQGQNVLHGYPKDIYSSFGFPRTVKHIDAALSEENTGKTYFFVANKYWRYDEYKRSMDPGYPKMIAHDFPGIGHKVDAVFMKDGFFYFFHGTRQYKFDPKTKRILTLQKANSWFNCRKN
Put plainly: MMP-1 enzyme inhibition assay (coumarin-labelled peptide substrate). The following applies: read-out: percentage inhibition MMP1. The gist of the method:
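Recombinant human MMP-1, APMA-activated if needed, in Tris-HCl pH 7.6 with NaCl, CaCl2 and 0.05% Brij 35; McaPLGLDpaAR substrate added as 8 μM solution, 2 h at 37 °C. Fluorescence (320/405 nm) read without stopping; IC50 from 10 duplicate concentrations (100 μM–5.1 nM) by four-parameter fit.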

For experiment [1], the target named is 92 kDa gelatinase (MMP-9) (Homo sapiens, UniProt P14780). Put plainly: MMP-9 enzyme inhibition assay (coumarin-labeled peptide substrate). The following applies: read-out: percentage inhibition MMP9. The gist of the method: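 Recombinant human MMP-9 (APMA-activated if needed) was assayed in 100 mM Tris-HCl pH 7.6, 100 mM NaCl, 10 mM CaCl2, 0.05% Brij 35, with McaPLGLDpaAR substrate at 37° C. for 2 h. Fluorescence was read at ex 320/em 405 nm over ten 3-fold compound doses (100 μM–5.1 nM) in duplicate. IC50 came from a four-parameter fit.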
92 kDa gelatinase (MMP-9), sequence (P14780 107-707 limits assumed): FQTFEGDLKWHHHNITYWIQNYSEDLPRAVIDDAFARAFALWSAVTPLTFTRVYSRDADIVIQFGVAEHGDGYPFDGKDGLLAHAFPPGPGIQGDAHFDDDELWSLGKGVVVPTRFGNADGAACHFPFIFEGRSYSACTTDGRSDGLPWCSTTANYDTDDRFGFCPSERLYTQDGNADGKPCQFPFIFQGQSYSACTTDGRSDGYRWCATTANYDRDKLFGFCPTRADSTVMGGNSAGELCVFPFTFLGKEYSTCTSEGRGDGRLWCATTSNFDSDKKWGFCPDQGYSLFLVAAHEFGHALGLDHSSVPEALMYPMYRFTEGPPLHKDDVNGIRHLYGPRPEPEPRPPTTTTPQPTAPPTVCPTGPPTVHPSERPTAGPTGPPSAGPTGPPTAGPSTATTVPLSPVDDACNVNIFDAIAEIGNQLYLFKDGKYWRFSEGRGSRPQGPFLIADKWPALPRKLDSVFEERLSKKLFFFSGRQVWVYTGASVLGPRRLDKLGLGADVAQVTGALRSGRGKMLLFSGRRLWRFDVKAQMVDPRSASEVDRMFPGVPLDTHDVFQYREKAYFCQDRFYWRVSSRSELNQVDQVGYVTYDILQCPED

A further experiment has as its target metalloelastase (MMP-12) (Homo sapiens, UniProt P39900). The experiment is described as follows: MMP-12 enzyme inhibition assay (coumarin-labelled peptide substrate). The following applies: read-out: IC50 MMP12. Put shortly:
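Recombinant human MMP-12 assayed per the MMP-9 protocol: Tris-HCl pH 7.6 buffer with NaCl, CaCl2, Brij 35; McaPLGLDpaAR substrate, compounds 100 μM–5.1 nM in duplicate, 2 h at 37° C. Fluorescence read at 405 nm (320 nm excitation) without stopping; IC50 from four-parameter fit.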

In the next experiment the target is MMP-14 (Homo sapiens, UniProt P50281). The experiment is described as follows: MMP-14 enzyme inhibition assay (coumarin-labelled peptide substrate). Particulars: read-out: percentage inhibition MMP14. The gist of the method: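 Recombinant human enzyme, APMA-activated if necessary, was incubated with McaPLGLDpaAR substrate and compound (10 concentrations in duplicate, 100 μM to 5.1 nM) in Tris-HCl pH 7.6 with NaCl, CaCl2 and Brij 35 for 2 h at 37 °C. Fluorescence was read at 320/405 nm, and IC50 was taken from a four-parameter fit.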

metalloelastase (MMP-12), sequence (P39900 106-470): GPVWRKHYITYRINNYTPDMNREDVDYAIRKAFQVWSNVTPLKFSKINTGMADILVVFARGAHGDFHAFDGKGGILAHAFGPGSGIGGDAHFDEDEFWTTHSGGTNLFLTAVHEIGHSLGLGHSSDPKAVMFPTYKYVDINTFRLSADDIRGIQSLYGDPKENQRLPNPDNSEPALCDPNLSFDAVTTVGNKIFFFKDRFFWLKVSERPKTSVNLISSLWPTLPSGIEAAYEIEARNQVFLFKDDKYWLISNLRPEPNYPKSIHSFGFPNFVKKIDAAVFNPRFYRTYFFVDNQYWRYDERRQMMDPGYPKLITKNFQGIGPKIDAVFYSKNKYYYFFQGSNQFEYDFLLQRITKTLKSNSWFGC

A word on the inhibition: it is how much of the control response was suppressed. As usually defined, the pIC50 is −log10 of the IC50, conventionally taken in molar units. Take `CC(C)C(CS(=O)(=O)N1CCc2cc(Cl)c(Cl)cc2C1)N(O)C=O` (stereo not drawn) [Example 39, N-(1-{[(6,7-dichloro-3,4-dihydroisoquinolin-2(1H)-yl)-sulfonyl]methyl}-2-methylpropyl)-N-hydroxyformamide]: the inhibition at 5 µM on collagenase (MMP-1) came out at 25%; in experiment [1], 47%; on MMP-14, 87%. The pIC50 on metalloelastase (MMP-12) was 8.39. In addition, the inhibition at 0.1 µM at MMP-14 was 10%.
In the case of `CCCOc1ccc2c(c1)CN(S(=O)(=O)CC(CC(C)(C)C)N(O)C=O)CC2` (stereo not drawn) [Example 40, N-(3,3-dimethyl-1-{[(7-propoxy-3,4-dihydroisoquinolin-2(1H)-yl)sulfonyl]methyl}butyl)-N-hydroxyformamide], the inhibition at 5 µM stood at 2% on collagenase (MMP-1), 11% in experiment [1] and 54% on MMP-14. Also, the pIC50 at metalloelastase (MMP-12) was 7.82.
`CC(C)(C)CC(CS(=O)(=O)N1CCc2ccc(Cl)cc2C1)N(O)C=O` (stereo not drawn) [Example 41, N-(1-{[(7-chloro-3,4-dihydroisoquinolin-2(1H)-yl)sulfonyl]-methyl}-3,3-dimethylbutyl)-N-hydroxyformamide]: the inhibition at 5 µM at collagenase (MMP-1) was 54%; in experiment [1], 14%; on MMP-14, 74%. The pIC50 on metalloelastase (MMP-12) is 7.96. In addition, the inhibition at 0.1 µM on MMP-14 stood at 5%.
In the same order, the values of `CC(C)(C)CC(CS(=O)(=O)N1CCc2cc(Cl)c(Cl)cc2C1)N(O)C=O` (stereo not drawn) [Example 42, N-(1-{[(6,7-dichloro-3,4-dihydroisoquinolin-2(1H)-yl)-sulfonyl]methyl}-3,3-dimethylbutyl)-N-hydroxyformamide] are 29%, 35%, 88%, 8.36 and 15%.
As to `CC(C)(C)CC(CS(=O)(=O)N1CCc2cc(C(F)(F)F)ccc2C1)N(O)C=O` (stereo not drawn) [Example 43, N-[3,3-dimethyl-1-({[6-(trifluoromethyl)-3,4-dihydro-isoquinolin-2(1H)-yl]sulfonyl}methyl)butyl]-N-hydroxyformamide], the inhibition at 5 µM was 53% at collagenase (MMP-1), 68% in experiment [1] and 89% on MMP-14. Further, the inhibition at 0.1 µM in experiment [1] was found to be 1%; on MMP-14, 14%. Besides, the pIC50 on metalloelastase (MMP-12) is 8.49.
For the compound `CC(C)c1ccc2c(c1)CCN(S(=O)(=O)C[C@H]([C@H]1CCCO1)N(O)C=O)C2` [Example 45, N-hydroxy-N-{(1S)-2-[(6-isopropyl-3,4-dihydroisoquinolin-2(1H)-yl)sulfonyl]-1-[(2R)-tetrahydrofuran-2-yl]ethyl}formamide], the inhibition at 5 µM came out at 2% on collagenase (MMP-1), 47% in experiment [1] and 92% on MMP-14. The pIC50 on metalloelastase (MMP-12) is 8.82.
As for `O=CN(O)C(CS(=O)(=O)N1CCc2cc(C(F)(F)F)ccc2C1)[C@H]1CCCO1` (stereo partly drawn) [Example 47, N-hydroxy-N-(1-[(2R)-tetrahydrofuran-2-yl]-2-{[6-(tri-fluoromethyl)-3,4-dihydroisoquinolin-2(1H)-yl]sulfonyl}ethyl)formamide], the inhibition at 5 µM was 40% on collagenase (MMP-1), 40% in experiment [1] and 79% at MMP-14. Moreover, the pIC50 on metalloelastase (MMP-12) is 8.60. Also, on MMP-14, the inhibition at 0.1 µM was determined as 7%.
As to `O=CN(O)C(CCO)CS(=O)(=O)N1CCc2ccc(Cl)cc2C1` (stereo not drawn) [Example 48, N-(1-{[(7-chloro-3,4-dihydroisoquinolin-2(1H)-yl)sulfonyl]-methyl}-3-hydroxypropyl)-N-hydroxyformamide], the inhibition at 5 µM at collagenase (MMP-1) is 26%; in experiment [1], 8%; at MMP-14 it was 41%. Also, at metalloelastase (MMP-12), the pIC50 was 7.34.
For `O=CN(O)C(CO)CS(=O)(=O)N1CCc2cc(Cl)c(Cl)cc2C1` (stereo not drawn) [Example 49, N-[2-[(6,7-dichloro-3,4-dihydroisoquinolin-2(1H)-yl)-sulfonyl]-1-(hydroxymethyl)ethyl]-N-hydroxyformamide], the inhibition at 5 µM at collagenase (MMP-1) was 29%; in experiment [1] it was 43%; at MMP-14 it was 86%. Besides, the pIC50 at metalloelastase (MMP-12) is 8.26. Also, on MMP-14, the inhibition at 0.1 µM turned out to be 14%.
As for `CC(C)C(CS(=O)(=O)N1CCc2ccc(-c3ccc(F)cc3)cc2C1)N(O)C=O` (stereo not drawn) [Example 50, N-[1-({[7-(4-fluorophenyl)-3,4-dihydroisoquinolin-2(1H)-yl]sulfonyl}methyl)-2-methylpropyl]-N-hydroxyformamide], the inhibition at 5 µM at collagenase (MMP-1) was 0%; in experiment [1] it was 72%; at MMP-14, 83%. The inhibition at 0.1 µM in experiment [1] was 4%; on MMP-14 it was 13%. In addition, on metalloelastase (MMP-12), the pIC50 was 8.46.
On to `O=CN(O)C(CS(=O)(=O)N1CCc2ccc(F)cc2C1)c1ccoc1` (stereo not drawn) [Example 52, N-[2-[(7-fluoro-3,4-dihydroisoquinolin-2(1H)-yl)sulfonyl]-1-(3-furyl)ethyl]-N-hydroxyformamide], for which the inhibition at 5 µM stood at 14% at collagenase (MMP-1), 10% in experiment [1] and 49% on MMP-14. The pIC50 on metalloelastase (MMP-12) is 7.34.
In the same order, the values of `O=CN(O)C(CS(=O)(=O)N1CCc2ccc(F)cc2C1)C1CCN(Cc2ccccc2)CC1` (stereo not drawn) [Example 53, N-{1-(1-benzylpiperidin-4-yl)-2-[(7-fluoro-3,4-dihydro-isoquinolin-2(1H)-yl)sulfonyl]ethyl}-N-hydroxyformamide] are 16%, 5%, 34% and 6.97.
As to `CC(C)CC(CS(=O)(=O)N1CCc2ccc(Br)cc2C1)N(O)C=O` (stereo not drawn) [Example 55, N-(1-{[(7-bromo-3,4-dihydroisoquinolin-2(1H)-yl)-sulfonyl]methyl}-3-methylbutyl)-N-hydroxyformamide], the results for the inhibition at 0.1 µM on collagenase (MMP-1) and on MMP-14 were 7% and 19%, respectively. The inhibition at 5 µM on collagenase (MMP-1) came to 69%; in experiment [1], 39%; on MMP-14, 86%. Moreover, on metalloelastase (MMP-12), the pIC50 is 8.22.
Regarding `CC(C)(CS(=O)(=O)N1CCc2ccc(Br)cc2C1)N(O)C=O` [Example 56, N-{2-[(7-bromo-3,4-dihydroisoquinolin-2(1H)-yl)sulfonyl]-1,1-dimethylethyl}-N-hydroxyformamide], the figures for the inhibition at 5 µM (on collagenase (MMP-1); in experiment [1]; on MMP-14) were 34%, 2% and 48%, respectively. The pIC50 on metalloelastase (MMP-12) was 7.29.
In the same order, the values of `CC(C)(C)c1ccc2c(c1)CN(S(=O)(=O)CC(COCc1ccccc1)N(O)C=O)CC2` (stereo not drawn) [Example 57, N-(2-(benzyloxy)-1-{[(7-tert-butyl-3,4-dihydroisoquinolin-2(1H)-yl)sulfonyl]methyl}ethyl)-N-hydroxyformamide] are 0%, 0%, 0% and 6.93.
Regarding `O=CN(O)C(COCc1ccccc1)CS(=O)(=O)N1CCc2ccc(Cl)cc2C1` (stereo not drawn) [Example 58, N-(2-(benzyloxy)-1-{[(7-chloro-3,4-dihydroisoquinolin-2(1H)-yl)sulfonyl]methyl}ethyl)-N-hydroxyformamide], the inhibition at 0.1 µM amounted to 4% on collagenase (MMP-1) and 11% at MMP-14. Besides, the results for the inhibition at 5 µM (at collagenase (MMP-1); in experiment [1]; at MMP-14) were 68%, 41% and 79%, respectively. The pIC50 on metalloelastase (MMP-12) was 8.35.
On to `O=CN(O)C(COCc1ccccc1)CS(=O)(=O)N1CCc2ccc(C(F)(F)F)cc2C1` (stereo not drawn) [Example 59, N-[2-(benzyloxy)-1-({[7-(trifluoromethyl)-3,4-dihydro-isoquinolin-2(1H)-yl]sulfonyl}methyl)ethyl]-N-hydroxyformamide], for which the inhibition at 5 µM stood at 35% on collagenase (MMP-1), 32% in experiment [1] and 43% on MMP-14. Further, the pIC50 at metalloelastase (MMP-12) was 8.12.
